The compounds below were run on BT-474 (assay: normalised viability (% of control), CellTiter-Blue; higher = more viable cells (about 100 = DMSO control)). Conditions: 10 nM; incubation time: 72 h.
Method in brief: (§1)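 Vehicle (100) and a positive kill control (0) anchored the normalisation of each plate, and Z'-factor was used for quality control. Breast cancer cell lines in 20 µl suspension were incubated 72 h over compound in 5 µl medium in 384-well plates, followed by CellTiter-Blue at 560/590 nm. The value is normalised viability at a single listed concentration of the series.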

Structure (SMILES) | normalised viability [%]
Cc1cc(Nc2cc(CN3CCOCC3)c3nc(C)c(Cc4ccc(Cl)cc4F)n3n2)n[nH]1 | 109
N#Cc1ccc(COC[C@H]2O[C@@H](n3c(NCc4ccc(Cl)c(Cl)c4)nc4c(N)ncnc43)[C@H](O)[C@@H]2O)cc1 | 135
COc1cc(OC2CCN(C)CC2)ccc1Nc1ncc2c(n1)n(C1CCCC1)c(=O)n2C [AZ 3146] | 110
CN(C)c1nc(N(C)C)nc(N(C)C)n1 [Altretamine] | 117
COC(=O)c1ccc2c(c1)NC(=O)/C2=C(\Nc1ccc(N(C)C(=O)CN2CCN(C)CC2)cc1)c1ccccc1 [BIBF 1120] | 127
Nc1cc(C(F)(F)F)c(-c2cc(N3CCOCC3)nc(N3CCOCC3)n2)cn1 [BKM-120] | 129
O=C(/C=C/c1cccc(S(=O)(=O)Nc2ccccc2)c1)NO [Belinostat] | 106
C=C1C[C@@H]2[C@H](CC[C@]3(C)C(=O)CC[C@@H]23)[C@@]2(C)C=CC(=O)C=C12 [Exemestane] | 111

Same assay, conditions: 40 nM; incubation time: 72 h

Structure (SMILES) | normalised viability [%]
O=P1(N(CCCl)CCCl)NCCCO1 (stereo not given) [Cyclophosphamide] | 121

Same assay, conditions: 1000 nM; incubation time: 72 h

Structure (SMILES) | normalised viability [%]
Cc1cc(Nc2cc(CN3CCOCC3)c3nc(C)c(Cc4ccc(Cl)cc4F)n3n2)n[nH]1 | 96.6
N#Cc1ccc(COC[C@H]2O[C@@H](n3c(NCc4ccc(Cl)c(Cl)c4)nc4c(N)ncnc43)[C@H](O)[C@@H]2O)cc1 | 95
COc1cc(OC2CCN(C)CC2)ccc1Nc1ncc2c(n1)n(C1CCCC1)c(=O)n2C [AZ 3146] | 96.2
CN(C)c1nc(N(C)C)nc(N(C)C)n1 [Altretamine] | 134
COC(=O)c1ccc2c(c1)NC(=O)/C2=C(\Nc1ccc(N(C)C(=O)CN2CCN(C)CC2)cc1)c1ccccc1 [BIBF 1120] | 92.5
Nc1cc(C(F)(F)F)c(-c2cc(N3CCOCC3)nc(N3CCOCC3)n2)cn1 [BKM-120] | 64.3
O=C(/C=C/c1cccc(S(=O)(=O)Nc2ccccc2)c1)NO [Belinostat] | 47.5
C=C1C[C@@H]2[C@H](CC[C@]3(C)C(=O)CC[C@@H]23)[C@@]2(C)C=CC(=O)C=C12 [Exemestane] | 93.7

Same assay, conditions: 4000 nM; incubation time: 72 h

Structure (SMILES) | normalised viability [%]
O=P1(N(CCCl)CCCl)NCCCO1 (stereo not given) [Cyclophosphamide] | 119

Same assay, conditions: 10000 nM; incubation time: 72 h

Structure (SMILES) | normalised viability [%]
Cc1cc(Nc2cc(CN3CCOCC3)c3nc(C)c(Cc4ccc(Cl)cc4F)n3n2)n[nH]1 | 49.7
N#Cc1ccc(COC[C@H]2O[C@@H](n3c(NCc4ccc(Cl)c(Cl)c4)nc4c(N)ncnc43)[C@H](O)[C@@H]2O)cc1 | 89.5
COc1cc(OC2CCN(C)CC2)ccc1Nc1ncc2c(n1)n(C1CCCC1)c(=O)n2C [AZ 3146] | 122
CN(C)c1nc(N(C)C)nc(N(C)C)n1 [Altretamine] | 138
COC(=O)c1ccc2c(c1)NC(=O)/C2=C(\Nc1ccc(N(C)C(=O)CN2CCN(C)CC2)cc1)c1ccccc1 [BIBF 1120] | 58.6
Nc1cc(C(F)(F)F)c(-c2cc(N3CCOCC3)nc(N3CCOCC3)n2)cn1 [BKM-120] | 11.1
O=C(/C=C/c1cccc(S(=O)(=O)Nc2ccccc2)c1)NO [Belinostat] | 2.17
C=C1C[C@@H]2[C@H](CC[C@]3(C)C(=O)CC[C@@H]23)[C@@]2(C)C=CC(=O)C=C12 [Exemestane] | 103

Same assay, conditions: 40000 nM; incubation time: 72 h

Structure (SMILES) | normalised viability [%]
O=P1(N(CCCl)CCCl)NCCCO1 (stereo not given) [Cyclophosphamide] | 127

The compounds below were run on BT-549 in the same assay as above. Conditions: 10 nM; incubation time: 72 h.
Method in brief: as §1

Structure (SMILES) | normalised viability [%]
Cc1cc(Nc2cc(CN3CCOCC3)c3nc(C)c(Cc4ccc(Cl)cc4F)n3n2)n[nH]1 | 97.8
N#Cc1ccc(COC[C@H]2O[C@@H](n3c(NCc4ccc(Cl)c(Cl)c4)nc4c(N)ncnc43)[C@H](O)[C@@H]2O)cc1 | 87.7
COc1cc(OC2CCN(C)CC2)ccc1Nc1ncc2c(n1)n(C1CCCC1)c(=O)n2C [AZ 3146] | 75.4
CN(C)c1nc(N(C)C)nc(N(C)C)n1 [Altretamine] | 89.3
COC(=O)c1ccc2c(c1)NC(=O)/C2=C(\Nc1ccc(N(C)C(=O)CN2CCN(C)CC2)cc1)c1ccccc1 [BIBF 1120] | 105
Nc1cc(C(F)(F)F)c(-c2cc(N3CCOCC3)nc(N3CCOCC3)n2)cn1 [BKM-120] | 78.3
O=C(/C=C/c1cccc(S(=O)(=O)Nc2ccccc2)c1)NO [Belinostat] | 108
C=C1C[C@@H]2[C@H](CC[C@]3(C)C(=O)CC[C@@H]23)[C@@]2(C)C=CC(=O)C=C12 [Exemestane] | 83.5

Same assay, conditions: 40 nM; incubation time: 72 h

Structure (SMILES) | normalised viability [%]
O=P1(N(CCCl)CCCl)NCCCO1 (stereo not given) [Cyclophosphamide] | 94.3

Same assay, conditions: 1000 nM; incubation time: 72 h

Structure (SMILES) | normalised viability [%]
Cc1cc(Nc2cc(CN3CCOCC3)c3nc(C)c(Cc4ccc(Cl)cc4F)n3n2)n[nH]1 | 78.8
N#Cc1ccc(COC[C@H]2O[C@@H](n3c(NCc4ccc(Cl)c(Cl)c4)nc4c(N)ncnc43)[C@H](O)[C@@H]2O)cc1 | 84
COc1cc(OC2CCN(C)CC2)ccc1Nc1ncc2c(n1)n(C1CCCC1)c(=O)n2C [AZ 3146] | 89.5
CN(C)c1nc(N(C)C)nc(N(C)C)n1 [Altretamine] | 78.4
COC(=O)c1ccc2c(c1)NC(=O)/C2=C(\Nc1ccc(N(C)C(=O)CN2CCN(C)CC2)cc1)c1ccccc1 [BIBF 1120] | 111
Nc1cc(C(F)(F)F)c(-c2cc(N3CCOCC3)nc(N3CCOCC3)n2)cn1 [BKM-120] | 62.5
O=C(/C=C/c1cccc(S(=O)(=O)Nc2ccccc2)c1)NO [Belinostat] | 67.8
C=C1C[C@@H]2[C@H](CC[C@]3(C)C(=O)CC[C@@H]23)[C@@]2(C)C=CC(=O)C=C12 [Exemestane] | 108

Same assay, conditions: 4000 nM; incubation time: 72 h

Structure (SMILES) | normalised viability [%]
O=P1(N(CCCl)CCCl)NCCCO1 (stereo not given) [Cyclophosphamide] | 94.9

Same assay, conditions: 10000 nM; incubation time: 72 h

Structure (SMILES) | normalised viability [%]
Cc1cc(Nc2cc(CN3CCOCC3)c3nc(C)c(Cc4ccc(Cl)cc4F)n3n2)n[nH]1 | 9.99
N#Cc1ccc(COC[C@H]2O[C@@H](n3c(NCc4ccc(Cl)c(Cl)c4)nc4c(N)ncnc43)[C@H](O)[C@@H]2O)cc1 | 34.4
COc1cc(OC2CCN(C)CC2)ccc1Nc1ncc2c(n1)n(C1CCCC1)c(=O)n2C [AZ 3146] | 62
CN(C)c1nc(N(C)C)nc(N(C)C)n1 [Altretamine] | 93.4
COC(=O)c1ccc2c(c1)NC(=O)/C2=C(\Nc1ccc(N(C)C(=O)CN2CCN(C)CC2)cc1)c1ccccc1 [BIBF 1120] | 16.4
Nc1cc(C(F)(F)F)c(-c2cc(N3CCOCC3)nc(N3CCOCC3)n2)cn1 [BKM-120] | 10.8
O=C(/C=C/c1cccc(S(=O)(=O)Nc2ccccc2)c1)NO [Belinostat] | 13.1
C=C1C[C@@H]2[C@H](CC[C@]3(C)C(=O)CC[C@@H]23)[C@@]2(C)C=CC(=O)C=C12 [Exemestane] | 85.9

Same assay, conditions: 40000 nM; incubation time: 72 h

Structure (SMILES) | normalised viability [%]
O=P1(N(CCCl)CCCl)NCCCO1 (stereo not given) [Cyclophosphamide] | 95.2

These compounds were tested on CAL-120 in the same assay as above. Conditions: 10 nM; incubation time: 72 h.
Method in brief: as §1

Structure (SMILES) | normalised viability [%]
Cc1cc(Nc2cc(CN3CCOCC3)c3nc(C)c(Cc4ccc(Cl)cc4F)n3n2)n[nH]1 | 83.7
N#Cc1ccc(COC[C@H]2O[C@@H](n3c(NCc4ccc(Cl)c(Cl)c4)nc4c(N)ncnc43)[C@H](O)[C@@H]2O)cc1 | 103
COc1cc(OC2CCN(C)CC2)ccc1Nc1ncc2c(n1)n(C1CCCC1)c(=O)n2C [AZ 3146] | 115
CN(C)c1nc(N(C)C)nc(N(C)C)n1 [Altretamine] | 88.6
COC(=O)c1ccc2c(c1)NC(=O)/C2=C(\Nc1ccc(N(C)C(=O)CN2CCN(C)CC2)cc1)c1ccccc1 [BIBF 1120] | 82.6
Nc1cc(C(F)(F)F)c(-c2cc(N3CCOCC3)nc(N3CCOCC3)n2)cn1 [BKM-120] | 81.1
